Experimental data from the supplement of paper PMC13380429.

Legend:
[1] = tested on: A549-ACE2 infected with SARS-CoV-2; assay: cell count relative to DMSO; higher = less toxic; settings: 24 h
[2] = tested on: Caco-2; assay: cell viability relative to DMSO; higher = less toxic; settings: 72 h
[3] = tested on: Calu-3; assay: as above; settings: 72 h
[4] = tested on: HepG2; assay: as above; settings: 72 h
[5] = tested on: U2OS; assay: as above; settings: 72 h
[6] = tested on: Vero E6; assay: as above; settings: 72 h
[7] = tested on: A549-ACE2 infected with SARS-CoV-2; assay: SARS-CoV-2 infection rate relative to DMSO; higher = more infection; settings: 24 h
[8] = tested on: A549-ACE2; assay: phospholipidosis EC50; higher = less potent phospholipidosis inducer
[9] = tested on: A549-ACE2; assay: drug-induced phospholipidosis relative to tamoxifen; higher = more phospholipidosis
[10] = tested on: A549-ACE2 infected with SARS-CoV-2; assay: morphology score (similarity to uninfected cells); higher = more like uninfected cells; settings: 24 h
[11] = tested on: Calu-3; assay: relative viability EC50 (midpoint between 100% and the lowest measured viability); higher = less toxic; settings: 72 h
[12] = tested on: U2OS; assay: as above; settings: 72 h
[13] = tested on: Vero E6; assay: as above; settings: 72 h
[14] = tested on: Caco-2; assay: drug sensitivity score (DSS) for viability; higher = more toxic; extreme values may be limits of the assay; settings: 72 h
[15] = tested on: Calu-3; assay: as above; settings: 72 h
[16] = tested on: HepG2; assay: as above; settings: 72 h
[17] = tested on: U2OS; assay: as above; settings: 72 h
[18] = tested on: Vero E6; assay: as above; settings: 72 h
[19] = tested on: Caco-2; assay: relative viability EC50 (midpoint between 100% and the lowest measured viability); higher = less toxic; settings: 72 h

CC/C(=C(\c1ccc(O)cc1)c1ccc(OCCN(C)C)cc1)c1ccccc1 [afimoxifene]
Settings	SARS-CoV-2 infection rate [%]	cell count [%]	cell viability [%]	morphology score	phospholipidosis EC50 [µM]
[1], 0.3 µM	–	99	–	–	–
[1], 3 µM	–	121	–	–	–
[1], 10 µM	–	117	–	–	–
[1], 30 µM	–	81	–	–	–
[2], 1 nM	–	–	93	–	–
[2], 10 nM	–	–	91.2	–	–
[2], 100 nM	–	–	95.5	–	–
[2], 1000 nM	–	–	94	–	–
[2], 10000 nM	–	–	66.6	–	–
[3], 1 nM	–	–	91.7	–	–
[3], 10 nM	–	–	103	–	–
[3], 100 nM	–	–	102	–	–
[3], 1000 nM	–	–	105	–	–
[3], 10000 nM	–	–	25.2	–	–
[4], 1 nM	–	–	94.6	–	–
[4], 10 nM	–	–	111	–	–
[4], 100 nM	–	–	90.7	–	–
[4], 1000 nM	–	–	112	–	–
[4], 10000 nM	–	–	54.3	–	–
[5], 1 nM	–	–	96.8	–	–
[5], 10 nM	–	–	94.8	–	–
[5], 100 nM	–	–	102	–	–
[5], 1000 nM	–	–	97.2	–	–
[5], 10000 nM	–	–	77.6	–	–
[6], 1 nM	–	–	93.7	–	–
[6], 10 nM	–	–	98.9	–	–
[6], 100 nM	–	–	99.8	–	–
[6], 1000 nM	–	–	104	–	–
[6], 10000 nM	–	–	81.2	–	–
[7], 0.3 µM	112	–	–	–	–
[7], 3 µM	47	–	–	–	–
[7], 10 µM	13	–	–	–	–
[7], 30 µM	68	–	–	–	–
[8], 24 h	–	–	–	–	1.78
[8], 48 h	–	–	–	–	2.82
[8], 72 h	–	–	–	–	3.95
[10], 0.3 µM	–	–	–	-0.03	–
[10], 3 µM	–	–	–	0.75	–
[10], 10 µM	–	–	–	0.83	–
[10], 30 µM	–	–	–	-0.14	–

drug-induced phospholipidosis [%], [9]
Settings	0.3 µM	0.833333 µM	3.33333 µM	6.66667 µM	10 µM	30 µM
24 h	3.39	11.5	51	69.1	81.9	36.9
48 h	3.38	6.29	53.4	74.8	82.8	–
72 h	5.01	4.34	43.1	75.7	88.4	–

Settings	drug sensitivity score	relative viability EC50 [µM]
[11]	–	3.52
[12]	–	> 10
[13]	–	> 10
[14]	2.5	–
[15]	3.7	–
[16]	1.8	–
[17]	1.2	–
[18]	0.3	–

O=C(c1ccc(OCCN2CCCCC2)cc1)c1c(-c2ccc(O)cc2)sc2cc(O)ccc12 [raloxifene]
Settings	SARS-CoV-2 infection rate [%]	cell count [%]	cell viability [%]	morphology score	phospholipidosis EC50 [µM]
[1], 0.1 µM	–	94	–	–	–
[1], 0.3 µM	–	102	–	–	–
[1], 1 µM	–	97	–	–	–
[1], 3 µM	–	106	–	–	–
[2], 1 nM	–	–	108	–	–
[2], 10 nM	–	–	82.9	–	–
[2], 100 nM	–	–	100	–	–
[2], 1000 nM	–	–	78.3	–	–
[2], 10000 nM	–	–	60.9	–	–
[3], 1 nM	–	–	102	–	–
[3], 10 nM	–	–	92.4	–	–
[3], 100 nM	–	–	98.1	–	–
[3], 1000 nM	–	–	103	–	–
[3], 10000 nM	–	–	79.5	–	–
[4], 1 nM	–	–	91.4	–	–
[4], 10 nM	–	–	95.2	–	–
[4], 100 nM	–	–	93.6	–	–
[4], 1000 nM	–	–	101	–	–
[4], 10000 nM	–	–	74.1	–	–
[5], 1 nM	–	–	93	–	–
[5], 10 nM	–	–	91.3	–	–
[5], 100 nM	–	–	97.7	–	–
[5], 1000 nM	–	–	95.4	–	–
[5], 10000 nM	–	–	89.9	–	–
[6], 1 nM	–	–	107	–	–
[6], 10 nM	–	–	98.8	–	–
[6], 100 nM	–	–	99.3	–	–
[6], 1000 nM	–	–	94.8	–	–
[6], 10000 nM	–	–	67.9	–	–
[7], 0.1 µM	99	–	–	–	–
[7], 0.3 µM	97	–	–	–	–
[7], 1 µM	104	–	–	–	–
[7], 3 µM	84	–	–	–	–
[8], 72 h	–	–	–	–	29.8
[10], 0.1 µM	–	–	–	-0.07	–
[10], 0.3 µM	–	–	–	0.17	–
[10], 1 µM	–	–	–	-0.1	–
[10], 3 µM	–	–	–	0.42	–

drug-induced phospholipidosis [%], [9]
Settings	0.3 µM	0.833333 µM	3.33333 µM	6.66667 µM	10 µM	30 µM
24 h	-1.05	-0.52	10.1	22.3	37.7	-2.02
48 h	3.44	1.43	14.5	28.6	41	26.2
72 h	4.4	2.6	17.4	36	56	–

Settings	drug sensitivity score	relative viability EC50 [µM]
[11]	–	> 10
[12]	–	> 10
[14]	4.6	–
[15]	0.5	–
[16]	1	–
[17]	0	–
[18]	2.3	–

OCc1cc(C(O)CNCCCCCCOCCCCc2ccccc2)ccc1O (stereo not drawn) [salmeterol]
Settings	SARS-CoV-2 infection rate [%]	cell count [%]	cell viability [%]	morphology score	phospholipidosis EC50 [µM]
[1], 0.3 µM	–	101	–	–	–
[1], 3 µM	–	108	–	–	–
[1], 10 µM	–	121	–	–	–
[1], 30 µM	–	102	–	–	–
[2], 1 nM	–	–	97.4	–	–
[2], 10 nM	–	–	96.6	–	–
[2], 100 nM	–	–	95.1	–	–
[2], 1000 nM	–	–	92.7	–	–
[2], 10000 nM	–	–	86.6	–	–
[3], 1 nM	–	–	112	–	–
[3], 10 nM	–	–	97.4	–	–
[3], 100 nM	–	–	100	–	–
[3], 1000 nM	–	–	99	–	–
[3], 10000 nM	–	–	98.9	–	–
[4], 1 nM	–	–	107	–	–
[4], 10 nM	–	–	107	–	–
[4], 100 nM	–	–	94	–	–
[4], 1000 nM	–	–	105	–	–
[4], 10000 nM	–	–	70.8	–	–
[5], 1 nM	–	–	103	–	–
[5], 10 nM	–	–	97.7	–	–
[5], 100 nM	–	–	99.9	–	–
[5], 1000 nM	–	–	99.3	–	–
[5], 10000 nM	–	–	95.2	–	–
[6], 1 nM	–	–	101	–	–
[6], 10 nM	–	–	106	–	–
[6], 100 nM	–	–	101	–	–
[6], 1000 nM	–	–	107	–	–
[6], 10000 nM	–	–	97.5	–	–
[7], 0.3 µM	107	–	–	–	–
[7], 3 µM	91	–	–	–	–
[7], 10 µM	19	–	–	–	–
[7], 30 µM	17	–	–	–	–
[8], 24 h	–	–	–	–	5.09
[8], 48 h	–	–	–	–	7.38
[8], 72 h	–	–	–	–	8.86
[10], 0.3 µM	–	–	–	-0.02	–
[10], 3 µM	–	–	–	0.15	–
[10], 10 µM	–	–	–	0.89	–
[10], 30 µM	–	–	–	0.58	–

drug-induced phospholipidosis [%], [9]
Settings	0.3 µM	0.833333 µM	3.33333 µM	6.66667 µM	10 µM	30 µM
24 h	-0.12	-0.14	9.06	65.1	85.7	80.3
48 h	2.35	2.68	8.06	52.9	83.5	117
72 h	3.27	1.57	6.45	37.9	80.7	130

Settings	drug sensitivity score	relative viability EC50 [µM]
[11]	–	> 10
[12]	–	> 10
[13]	–	> 10
[14]	0.1	–
[15]	0	–
[16]	1	–
[17]	0	–
[18]	0	–
[19]	–	> 10
